The text below walks through data of ChEMBL document CHEMBL1201862, “PubChem BioAssay data set” (2004).

Among the test systems are MDA-MB-231; ACHN; NCI-H460; DU-145; IGROV-1; A498; A549; RXF 393; M14; SN12C; NCI/ADR-RES; HOP-92; SF-295; MDA-N; OVCAR-4; T47D; OVCAR-8; SR; SK-MEL-28; K562.
What all share (experiment): DTP human tumour cell line panel, 48 h

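48-hour exposure; five concentrations; linearly interpolated endpoints. GI50 = concentration required for 50% inhibition of growth.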 The source made the active and inactive calls. Rule as the data show it: active = GI50 up to about 1.1 µM and inactive = higher.

Consider `O=[N+]([O-])c1cccc2nc3ccccc3c(NCCN(CCO)CCO)c12`, for which the 50% growth inhibitory concentration (GI50) is 0.00268 µM (active) in the test on MDA-MB-231; 0.00361 µM (active) in the test with ACHN; 0.000815 µM (active) with NCI-H460; 0.00208 µM (active) in the test with DU-145; 0.00578 µM (active) in the test on IGROV-1; 0.00501 µM (active) in the test with A498. The 50% growth inhibitory concentration (GI50) in the test with A549 was 0.00272 µM (active); in the test on RXF 393 it was 0.00121 µM (active); with M14, 0.00338 µM (active); in the test on SN12C, 0.00537 µM (active); with NCI/ADR-RES, 0.128 µM (active); in the test with HOP-92 it was 0.00447 µM (active). Further, the GI50 in the test on SF-295 was 0.00698 µM (active); in the test on MDA-N it was 0.00143 µM (active); with OVCAR-4, 0.00453 µM (active); in the test on T47D it was 0.00367 µM (active); in the test with OVCAR-8, 0.00351 µM (active); in the test on SR, 0.00123 µM (active).
Consider `COc1ccc(-c2nnc3n(C)c4ccccc4n3c2=O)cc1`, for which the GI50 in the test on MDA-MB-231 was 18.2 µM (inactive); in the test with ACHN it was 63 µM (inactive); in the test on NCI-H460, 38.3 µM (inactive); with DU-145, > 100 µM (inactive); in the test with IGROV-1, 51.5 µM (inactive); with A498, > 100 µM (inactive). Moreover, the GI50 with A549 is > 100 µM (inactive); with RXF 393, 31.1 µM (inactive); in the test with M14, > 100 µM (inactive); in the test on SN12C, 59 µM (inactive); with NCI/ADR-RES it was > 100 µM (inactive); in the test with HOP-92, > 100 µM (inactive). Further, the GI50 with SK-MEL-28 is > 100 µM (inactive); in the test with SF-295, 29.7 µM (inactive); in the test with MDA-N, > 100 µM (inactive); in the test with OVCAR-4, > 100 µM (inactive); in the test on T47D, > 100 µM (inactive); in the test with OVCAR-8, 56.1 µM (inactive). The GI50 in the test with SR is > 100 µM (inactive).
Regarding `CC1(C)OC(=O)C(=Cc2ccc([N+](=O)[O-])s2)C(=O)O1`, the GI50 with MDA-MB-231 was 18.9 µM (inactive); in the test with ACHN it was 13.7 µM (inactive); in the test with NCI-H460, 56.6 µM (inactive); in the test with DU-145, 15.8 µM (inactive); with A498, 22.5 µM (inactive); in the test on A549 it was 90.8 µM (inactive). In addition, the GI50 was 12.3 µM (inactive) in the test with M14; 16.1 µM (inactive) in the test on SN12C; 18.5 µM (inactive) in the test on NCI/ADR-RES; 21.1 µM (inactive) in the test with HOP-92; 18.9 µM (inactive) in the test with SK-MEL-28; 15.7 µM (inactive) in the test with SF-295. The GI50 with MDA-N was 14.9 µM (inactive); in the test on T47D it was 14 µM (inactive); with OVCAR-8, 11.4 µM (inactive); with SR, 2.72 µM (inactive).
`CC(=O)OCC1=CC2OC(=O)C3=COC(OC4OC(CO)C(O)C(O)C4O)C1C32` (stereo unspecified): the GI50 in the test on MDA-MB-231 is > 100 µM (inactive); in the test on ACHN it was > 100 µM (inactive); with NCI-H460, > 10 µM (inactive); with DU-145, > 100 µM (inactive); in the test on IGROV-1, > 100 µM (inactive); in the test on A498 it was > 100 µM (inactive). Further, the GI50 in the test on A549, with M14, in the test on SN12C, in the test with NCI/ADR-RES, in the test on HOP-92 and in the test on SK-MEL-28 was > 100 µM (inactive) in each case. Further, the GI50 is > 100 µM (inactive) in the test on SF-295; > 100 µM (inactive) in the test on MDA-N; > 100 µM (inactive) in the test on OVCAR-4; > 100 µM (inactive) in the test on T47D; > 100 µM (inactive) in the test on OVCAR-8; 57 µM (inactive) with SR.
For the compound `Cc1cccc(C)c1NC(=O)C(=O)C(c1ccccc1Cl)S(=O)(=O)Cc1ccccc1Cl` (stereo unspecified), the GI50 is 31.1 µM (inactive) with MDA-MB-231; 53.3 µM (inactive) in the test with ACHN; > 100 µM (inactive) with NCI-H460; > 100 µM (inactive) in the test with DU-145; > 62.4 µM (inactive) with IGROV-1; > 100 µM (inactive) in the test with A549. The GI50 with RXF 393 is 29.8 µM (inactive); in the test on M14, > 100 µM (inactive); with K562, > 100 µM (inactive); in the test on SN12C, > 85.5 µM (inactive); in the test with NCI/ADR-RES, > 100 µM (inactive); in the test with HOP-92, 18.2 µM (inactive). Besides, the GI50 in the test on SK-MEL-28 is > 100 µM (inactive); with SF-295 it was 23.7 µM (inactive); in the test with MDA-N, > 100 µM (inactive); with OVCAR-4 it was > 100 µM (inactive); in the test with T47D, > 100 µM (inactive); in the test with OVCAR-8, > 37.8 µM (inactive). Further, the GI50 with SR was > 100 µM (inactive).
For the compound `O=C1OCN(c2ccccc2)C12CCN(Cc1ccccc1)CC2`, the GI50 in the test with MDA-MB-231 was 21.8 µM (inactive); with ACHN, 49.2 µM (inactive); in the test with NCI-H460, 22.9 µM (inactive); in the test with DU-145 it was 66.4 µM (inactive); in the test on IGROV-1 it was 59.8 µM (inactive); in the test on A549, 41.2 µM (inactive). The GI50 in the test on RXF 393 was 16.9 µM (inactive); in the test on M14 it was 18.2 µM (inactive); with K562, 5.35 µM (inactive); in the test with SN12C, 42.6 µM (inactive); in the test on NCI/ADR-RES, 50.4 µM (inactive); in the test on HOP-92, 39.3 µM (inactive). In addition, the GI50 in the test with SK-MEL-28 is 19.3 µM (inactive); in the test with SF-295, 16.4 µM (inactive); in the test on MDA-N, 23.6 µM (inactive); in the test on OVCAR-4, 35.8 µM (inactive); with T47D, 23 µM (inactive); in the test on OVCAR-8 it was 39.4 µM (inactive). The GI50 with SR was 34.4 µM (inactive).
Regarding `N#C/C(=C\c1cccc(Br)c1)c1nc2ccccc2c(=O)[nH]1`, the GI50 with MDA-MB-231 was 41.7 µM (inactive); in the test with ACHN it was 54.7 µM (inactive); in the test with NCI-H460 it was > 100 µM (inactive); with DU-145, > 100 µM (inactive); in the test on IGROV-1 it was > 100 µM (inactive); in the test with A549 it was > 100 µM (inactive). Moreover, the GI50 in the test with RXF 393 is > 100 µM (inactive); in the test on M14, > 100 µM (inactive); in the test on K562, > 100 µM (inactive); with SN12C, > 100 µM (inactive); with NCI/ADR-RES, > 100 µM (inactive); with HOP-92, 15.1 µM (inactive). Besides, the GI50 with SK-MEL-28 was > 100 µM (inactive); with SF-295 it was 53.5 µM (inactive); in the test on MDA-N it was > 100 µM (inactive); in the test on OVCAR-4 it was > 100 µM (inactive); with T47D, > 100 µM (inactive); in the test with OVCAR-8, > 100 µM (inactive). Further, in the test with SR, the GI50 is 92.9 µM (inactive).
With `CCCCCCCCCCCCCCCCOC[C@H](COC(c1ccccc1)(c1ccccc1)c1ccccc1)O[PH](=S)OC` (stereo partly specified), the GI50 with MDA-MB-231, in the test with ACHN, in the test on NCI-H460, in the test on DU-145, with IGROV-1 and in the test on A498 was > 100 µM (inactive) each time. The GI50 in the test with A549, in the test with RXF 393, in the test with M14, with K562, with SN12C and in the test on NCI/ADR-RES was > 100 µM (inactive) each time. Further, the GI50 in the test on HOP-92, with SF-295, in the test on MDA-N, with T47D, in the test on OVCAR-8 and in the test with SR was > 100 µM (inactive) in each case.
